Biological target: ROCK2 (human) (UniProt O75116)
Assay: Inhibition of ROCK2 Kinase Activity

ROCK2 (human), sequence (O75116 whole entry, looked up): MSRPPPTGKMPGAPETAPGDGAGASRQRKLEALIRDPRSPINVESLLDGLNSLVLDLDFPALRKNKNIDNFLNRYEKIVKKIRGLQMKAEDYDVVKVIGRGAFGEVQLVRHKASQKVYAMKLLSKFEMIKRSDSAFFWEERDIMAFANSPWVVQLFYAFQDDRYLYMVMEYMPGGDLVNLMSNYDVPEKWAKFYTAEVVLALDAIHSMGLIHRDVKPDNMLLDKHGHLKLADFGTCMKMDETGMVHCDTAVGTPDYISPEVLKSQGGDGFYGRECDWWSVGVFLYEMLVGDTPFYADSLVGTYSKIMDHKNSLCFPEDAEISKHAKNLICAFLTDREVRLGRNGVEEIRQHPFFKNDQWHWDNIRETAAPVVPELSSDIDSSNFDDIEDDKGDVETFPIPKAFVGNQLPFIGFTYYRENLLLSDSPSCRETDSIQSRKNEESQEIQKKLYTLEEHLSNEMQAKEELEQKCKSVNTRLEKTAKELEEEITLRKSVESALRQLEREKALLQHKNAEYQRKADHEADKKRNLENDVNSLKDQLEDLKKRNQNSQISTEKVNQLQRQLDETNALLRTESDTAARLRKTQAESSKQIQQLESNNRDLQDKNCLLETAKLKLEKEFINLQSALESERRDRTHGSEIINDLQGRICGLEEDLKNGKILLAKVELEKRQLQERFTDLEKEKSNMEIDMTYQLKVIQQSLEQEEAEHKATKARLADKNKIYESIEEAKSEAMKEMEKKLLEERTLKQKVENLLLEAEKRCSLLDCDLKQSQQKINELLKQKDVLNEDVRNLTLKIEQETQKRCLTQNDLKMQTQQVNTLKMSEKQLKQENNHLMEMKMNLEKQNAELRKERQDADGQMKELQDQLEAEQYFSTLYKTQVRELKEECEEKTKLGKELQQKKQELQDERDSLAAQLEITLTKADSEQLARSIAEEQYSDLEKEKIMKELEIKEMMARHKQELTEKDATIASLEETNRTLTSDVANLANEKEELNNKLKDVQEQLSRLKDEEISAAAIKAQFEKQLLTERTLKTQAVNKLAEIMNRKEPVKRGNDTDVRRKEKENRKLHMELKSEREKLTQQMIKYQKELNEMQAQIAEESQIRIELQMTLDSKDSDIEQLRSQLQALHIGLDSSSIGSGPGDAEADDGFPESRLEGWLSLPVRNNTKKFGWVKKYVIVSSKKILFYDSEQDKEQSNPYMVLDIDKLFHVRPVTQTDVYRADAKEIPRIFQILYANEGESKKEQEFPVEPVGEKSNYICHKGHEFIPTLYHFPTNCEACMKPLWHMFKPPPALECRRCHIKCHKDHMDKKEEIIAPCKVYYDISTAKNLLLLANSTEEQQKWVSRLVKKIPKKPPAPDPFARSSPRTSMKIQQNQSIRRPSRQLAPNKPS

SMILES	IC50 [µM]
O=C(C=Cc1ccccc1F)NCc1nc(-c2c[nH]c3ncccc23)n[nH]1	> 5
COc1ccc(C(=O)NCc2nc(-c3ccncc3)n[nH]2)c(OC)c1OC	> 5
O=C(NCc1nc(-c2ccncc2)n[nH]1)c1cc(F)c(F)cc1[N+](=O)[O-]	> 5
Cc1cccc(CCC(=O)NCc2nc(-c3c[nH]c4ncccc34)n[nH]2)c1	> 5
N#Cc1ccc(C(=O)NCc2nc(-c3c[nH]c4ncccc34)n[nH]2)cc1	> 5
O=C(C=Cc1ccccc1Cl)NCc1nc(-c2ccncc2)n[nH]1	> 5
O=C(NCc1nc(-c2c[nH]c3ncccc23)n[nH]1)c1cccc(Br)c1	> 5
Cc1cccc(C(=O)NCc2nc(-c3c[nH]c4ncccc34)n[nH]2)c1C	> 5
COc1ccc(C(=O)NCc2nc(-c3c[nH]c4ncccc34)n[nH]2)cc1	> 5
O=C(NCc1nc(-c2ccncc2)n[nH]1)c1ccccc1[N+](=O)[O-]	> 5
O=C(NCc1nc(-c2ccncc2)n[nH]1)c1cccnc1	> 5
O=C(NCc1cc(-c2ccncc2)n[nH]1)c1ccc(O)cc1O	≤ 5
O=C(NCc1nc(-c2c[nH]c3ncccc23)n[nH]1)c1c(Cl)cc(Cl)cc1Cl	> 5
O=C(Cc1ccccc1O)NCc1nc(-c2ccncc2)n[nH]1	> 5
CC(=O)NCc1nc(-c2c[nH]c3ncccc23)n[nH]1	> 5
O=C(c1cccs1)N1CCn2nc(-c3ccncc3)nc2C1	> 5
O=C(NCc1nc(-c2ccncc2)n[nH]1)c1ccc(Cl)c(Br)c1	> 5
CC(C(=O)NCc1nc(-c2c[nH]c3ncccc23)n[nH]1)c1cccc(C(=O)OCc2ccccc2)c1 (stereo not drawn)	> 5
COc1cc(C(=O)NCc2nc(-c3c[nH]c4ncccc34)n[nH]2)cc(OC)c1O	> 5
Cc1ccccc1CCC(=O)NCc1nc(-c2ccncc2)n[nH]1	> 5

SMILES	IC50 [µM]
O=C(Cc1cccc(O)c1)NCc1nc(-c2c[nH]c3ncccc23)n[nH]1	> 5
O=C(NCc1nc(-c2ccncc2)n[nH]1)c1ccccc1C(F)(F)F	> 5
CC(C)(C)OC(=O)NCC(=O)NCc1nc(-c2c[nH]c3ncccc23)n[nH]1	> 5
Cc1cccc(C(=O)NCc2nc(-c3c[nH]c4ncccc34)n[nH]2)c1O	> 5
O=C(NCc1nc(-c2c[nH]c3ncccc23)n[nH]1)c1ccccc1Cc1ccccc1	> 5
COc1ccc(Br)c(C(=O)NCc2nc(-c3c[nH]c4ncccc34)n[nH]2)c1	> 5
O=C(NCc1nc(-c2ccncc2)n[nH]1)c1ccc(Br)cc1	> 5
Cc1cc(C(=O)NCc2nc(-c3ccncc3)n[nH]2)ccc1Br	> 5
COc1ccc(OC)c(C(=O)NCc2nc(-c3c[nH]c4ncccc34)n[nH]2)c1	> 5
Cc1ccc(C(=O)NCc2nc(-c3ccncc3)n[nH]2)cc1	> 5
O=C(NCc1nc(-c2c[nH]c3ncccc23)n[nH]1)c1cccs1	≤ 5
CN(C=O)c1ccc(C(=O)NCc2nc(-c3c[nH]c4ncccc34)n[nH]2)cc1	> 5
CCOc1ccc2ccccc2c1C(=O)NCc1nc(-c2ccncc2)n[nH]1	> 5
O=C(C=Cc1ccc2c(c1)OCO2)NCc1nc(-c2ccncc2)n[nH]1	> 5
CCOC(=O)CC(=O)NCc1nc(-c2c[nH]c3ncccc23)n[nH]1	> 5
O=C(NCc1nc(-c2ccncc2)n[nH]1)c1cccc([N+](=O)[O-])c1	> 5
O=C(NCc1nc(-c2ccncc2)n[nH]1)c1ccc(C(F)(F)F)cc1[N+](=O)[O-]	> 5
COc1ccc(C(=O)NCc2nc(-c3ccncc3)n[nH]2)c(O)c1	≤ 5
O=C(NCc1nc(-c2ccncc2)n[nH]1)c1ccc(Oc2ccccc2)cc1	≤ 5
O=C(NCc1nc(-c2ccncc2)n[nH]1)c1cc([N+](=O)[O-])ccc1O	> 5

SMILES	IC50 [µM]
O=C(NCc1nc(-c2ccncc2)n[nH]1)c1cccc(I)c1	> 5
O=C(Cc1ccc(O)c(F)c1)NCc1nc(-c2ccncc2)n[nH]1	> 5
O=C(NCc1nc(-c2ccncc2)n[nH]1)c1ccncc1Cl	> 5
O=C(NCc1nc(-c2c[nH]c3ncccc23)n[nH]1)c1cc(F)c(F)cc1Cl	> 5
O=C(NCc1nc(-c2c[nH]c3ncccc23)n[nH]1)C1CCc2ccccc21 (stereo not drawn)	> 5
O=C(NCc1nc(-c2c[nH]c3ncccc23)n[nH]1)c1cccc([N+](=O)[O-])c1	> 5
COc1cc(C=CC(=O)NCc2nc(-c3c[nH]c4ncccc34)n[nH]2)ccc1O	> 5
O=C(NCc1nc(-c2ccncc2)n[nH]1)c1ccc(Cl)cc1Cl	> 5
O=C(NCc1nc(-c2ccncc2)n[nH]1)c1ccc(Cl)cc1[N+](=O)[O-]	> 5
Cc1c(C(=O)NCc2nc(-c3c[nH]c4ncccc34)n[nH]2)oc2ccccc12	> 5
COc1cccc(OC)c1C(=O)NCc1nc(-c2ccncc2)n[nH]1	> 5
O=C(NCc1nc(-c2ccncc2)n[nH]1)C1CCCO1 (stereo not drawn)	> 5
O=C(NCc1nc(-c2ccncc2)n[nH]1)c1c(Cl)cc(Cl)cc1Cl	> 5
O=C(NCc1nc(-c2ccncc2)n[nH]1)c1cccc2cc[nH]c12	≤ 5
O=C(Cc1ccc(C(F)(F)F)cc1)NCc1nc(-c2c[nH]c3ncccc23)n[nH]1	> 5
Cc1ccccc1OCC(=O)NCc1nc(-c2ccncc2)n[nH]1	> 5
O=C(NCc1nc(-c2c[nH]c3ncccc23)n[nH]1)c1ccc2cccc(O)c2n1	> 5
O=C(NCc1nc(-c2c[nH]c3ncccc23)n[nH]1)c1cc(O)c(O)c(O)c1	> 5
O=C(NCc1nc(-c2ccncc2)n[nH]1)c1cc([N+](=O)[O-])ccc1Cl	> 5

Results, then the compound that gave them:

IC50 [µM]	SMILES
> 5	O=Cc1ccc(C(=O)NCc2nc(-c3ccncc3)n[nH]2)cc1
≤ 5	O=C(NCc1nc(-c2ccncc2)co1)c1ccc(O)cc1O
> 5	O=C(NCc1nc(-c2c[nH]c3ncccc23)n[nH]1)c1cc2ccccc2o1
> 5	COc1ccccc1C=CC(=O)NCc1nc(-c2c[nH]c3ncccc23)n[nH]1
> 5	O=C(C=Cc1cccc(O)c1)NCc1nc(-c2ccncc2)n[nH]1
> 5	Cc1cc(C(=O)NCc2nc(-c3c[nH]c4ncccc34)n[nH]2)cc(Cl)n1
> 5	O=Cc1ccccc1C(=O)NCc1nc(-c2c[nH]c3ncccc23)n[nH]1
≤ 5	O=C(CCc1cccc(C(F)(F)F)c1)NCc1nc(-c2ccncc2)n[nH]1
> 5	COc1cc(C(=O)NCc2nc(-c3ccncc3)n[nH]2)cc(OC)c1O
> 5	CC(=O)Oc1cccc(C(=O)NCc2nc(-c3c[nH]c4ncccc34)n[nH]2)c1
> 5	O=C(CCc1cccc(Br)c1)NCc1nc(-c2ccncc2)n[nH]1
> 5	O=C(Cc1ccc(O)c(Cl)c1)NCc1nc(-c2ccncc2)n[nH]1
> 5	COc1ccc(C(=O)NCc2nc(-c3ccncc3)no2)cc1
> 5	CCC(C)C(NC(=O)OC(C)(C)C)C(=O)NCc1nc(-c2ccncc2)n[nH]1 (stereo not drawn)
> 5	Cc1ccc(SCC(=O)NCc2nc(-c3c[nH]c4ncccc34)n[nH]2)cc1
> 5	O=C(NCc1nc(-c2c[nH]c3ncccc23)n[nH]1)c1cncc(Br)c1
> 5	O=C(NCc1nc(-c2c[nH]c3ncccc23)n[nH]1)c1c(F)c(F)c(F)c(F)c1F
> 5	O=C(NCc1nc(-c2c[nH]c3ncccc23)n[nH]1)c1ccc(Cl)cc1O
> 5	Cc1ccccc1OCC(=O)NCc1nc(-c2c[nH]c3ncccc23)n[nH]1
> 5	Cc1cccc(C(=O)NCc2nc(-c3ccncc3)n[nH]2)c1C
> 5	O=C(NCc1nc(-c2ccncc2)n[nH]1)C1=CCCC1
≤ 5	O=C(NCc1nc(-c2ccncc2)c[nH]1)c1cccs1
> 5	CC(C)(C)OC(=O)NC(Cc1ccc(O)cc1)C(=O)NCc1nc(-c2ccncc2)n[nH]1 (stereo not drawn)
> 5	O=C(NCc1nc(-c2c[nH]c3ncccc23)n[nH]1)c1cccnc1
> 5	CC(C)(C)c1ccc(C(=O)NCc2nc(-c3c[nH]c4ncccc34)n[nH]2)cc1

IC50 [µM]	SMILES
> 5	O=C(C=Cc1ccccc1)NCc1nc(-c2ccncc2)n[nH]1
> 5	CC(C)(C)OC(=O)N1CCCC1C(=O)NCc1nc(-c2c[nH]c3ncccc23)n[nH]1 (stereo not drawn)
> 5	O=C(NCc1nc(-c2c[nH]c3ncccc23)n[nH]1)c1ccccc1
> 5	O=C(NCc1nc(-c2ccncc2)n[nH]1)c1ccc2ncccc2c1
> 5	O=C(CCc1ccccc1O)NCc1nc(-c2c[nH]c3ncccc23)n[nH]1
> 5	O=C(NCc1nc(-c2c[nH]c3ncccc23)n[nH]1)c1cnc(O)c(Cl)c1
> 5	O=C(NCc1nc(-c2c[nH]c3ncccc23)n[nH]1)c1ccc(Cl)cc1Cl
> 5	COc1ccc(C(=O)NCc2nc(-c3ccncc3)n[nH]2)cc1O
> 5	CC(C)(C)OC(=O)NC(Cc1ccccn1)C(=O)NCc1nc(-c2c[nH]c3ncccc23)n[nH]1 (stereo not drawn)
> 5	O=C(NCc1nc(-c2ccncc2)n[nH]1)c1ccccc1C(=O)c1ccc(O)cc1
≤ 5	CC(=O)c1ccc(C(=O)NCc2nc(-c3ccncc3)n[nH]2)cc1
> 5	O=C(NCc1nc(-c2ccncc2)n[nH]1)c1cc(Br)ccc1Cl
≤ 5	Cc1csc(C(=O)NCc2nc(-c3ccncc3)n[nH]2)c1
> 5	O=C(Cc1ccc(Br)cc1)NCc1nc(-c2ccncc2)n[nH]1
> 5	Cc1c(Cl)ccc(S(=O)(=O)NCc2nc(-c3ccncc3)n[nH]2)c1O
> 5	Cc1c(C(=O)NCc2nc(-c3c[nH]c4ncccc34)n[nH]2)cccc1[N+](=O)[O-]
> 5	O=C(NCc1nc(-c2c[nH]c3ncccc23)n[nH]1)c1cc(Cl)ccc1[N+](=O)[O-]
> 5	COc1cc(Cl)ccc1C(=O)NCc1nc(-c2c[nH]c3ncccc23)n[nH]1
> 5	O=C(NCc1nc(-c2c[nH]c3ncccc23)n[nH]1)c1ccccc1C(F)(F)F
> 5	O=C(NCc1nc(-c2c[nH]c3ncccc23)n[nH]1)c1cccc(O)c1O
> 5	O=S(=O)(NCc1nc(-c2ccncc2)n[nH]1)c1ccc(OCc2ccccc2)cc1
≤ 5	CC(C)(C)OC(=O)NC[C@H](NC(=O)c1ccc(O)cc1O)c1nc(-c2ccncc2)n[nH]1
> 5	O=C(NCc1nc(-c2c[nH]c3ncccc23)n[nH]1)c1ccc(F)cc1Cl
> 5	COc1ccccc1CC(=O)NCc1nc(-c2c[nH]c3ncccc23)n[nH]1

— the Kinase Knowledgebase extract (Sharma et al. 2016)
